Measurements published in PubChem BioAssay AID248 (DTP/NCI, 2004).
Where “and” joins values, the source holds several entries; their conditions need not be identical. Equal entries are not always repeated. Inconclusive results and toxic doses are left out. Rule as the data show it: active = T/C of 150% or more; inactive = T/C below 125%.

Test system: L1210 leukemia ip in BDF1 mice, survival T/C
Experiment: NCI In Vivo Anticancer Drug Screen. Data for tumor model L1210 Leukemia (intraperitoneal) in B6D2F1 (BDF1) mice
Conditions: endpoint: mean survival time, higher = longer survival
Summary of the method: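 Transplanted-tumor mice were given test agent; controls received vehicle only. Survival readings from the two groups were divided (treated over control).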

[1] = dose: 100.0 mg/kg/injection, schedule: Q04DX003 (ip), vehicle: Klucel (hydroxypropylcellulose) (HPC)
[2] = dose: 200.0 mg/kg/injection, schedule: Q04DX003 (ip), vehicle: Klucel (hydroxypropylcellulose) (HPC)
[3] = dose: 400.0 mg/kg/injection, schedule: Q04DX003 (ip), vehicle: Klucel (hydroxypropylcellulose) (HPC)
[4] = dose: 100.0 mg/kg/injection, schedule: Q01DX009 (ip), vehicle: saline with Tween-80
[5] = dose: 50.0 mg/kg/injection, schedule: Q04DX002 (ip), vehicle: saline
[6] = dose: 100.0 mg/kg/injection, schedule: Q04DX002 (ip), vehicle: saline
[7] = dose: 200.0 mg/kg/injection, schedule: Q04DX002 (ip), vehicle: saline
[8] = dose: 100.0 mg/kg/injection, schedule: Q04DX003 (ip), vehicle: saline
[9] = dose: 200.0 mg/kg/injection, schedule: Q04DX003 (ip), vehicle: saline
[10] = dose: 400.0 mg/kg/injection, schedule: Q04DX003 (ip), vehicle: saline
[11] = dose: 100.0 mg/kg/injection, schedule: Q01DX001 (ip), vehicle: carboxymethylcellulose (CMC)
[12] = dose: 200.0 mg/kg/injection, schedule: Q01DX001 (ip), vehicle: carboxymethylcellulose (CMC)
[13] = dose: 400.0 mg/kg/injection, schedule: Q01DX001 (ip), vehicle: carboxymethylcellulose (CMC)
[14] = dose: 100.0 mg/kg/injection, schedule: Q01DX009 (ip), vehicle: Klucel (hydroxypropylcellulose) (HPC)
[15] = dose: 200.0 mg/kg/injection, schedule: Q01DX009 (ip), vehicle: Klucel (hydroxypropylcellulose) (HPC)
[16] = dose: 400.0 mg/kg/injection, schedule: Q01DX009 (ip), vehicle: Klucel (hydroxypropylcellulose) (HPC)
[17] = dose: 12.5 mg/kg/injection, schedule: Q04DX003 (ip), vehicle: Klucel (hydroxypropylcellulose) (HPC)
[18] = dose: 25.0 mg/kg/injection, schedule: Q04DX003 (ip), vehicle: Klucel (hydroxypropylcellulose) (HPC)
[19] = dose: 50.0 mg/kg/injection, schedule: Q04DX003 (ip), vehicle: Klucel (hydroxypropylcellulose) (HPC)
[20] = dose: 100.0 mg/kg/injection, schedule: Q01DX001 (ip), vehicle: Klucel (hydroxypropylcellulose) (HPC)
[21] = dose: 200.0 mg/kg/injection, schedule: Q01DX001 (ip), vehicle: Klucel (hydroxypropylcellulose) (HPC)
[22] = dose: 50.0 mg/kg/injection, schedule: Q01DX009 (ip), vehicle: saline with Tween-80

Measured: T/C

CCCCCCCCCCCCCCCCc1c(C)ncn(C)c1=O
inactive: [1] 98 % of control | [2] 101 % of control | [3] 95 % of control

Cc1ccc(N2CCN(C3=CCC(C(C)C)CC3)CC2)cc1Cl (stereo not drawn)
inactive: [4] 106 % of control

O=CC(C(O)C(O)C(O)CO)N1CCN(C(C=O)C(O)C(O)C(O)CO)CC1 (stereo not drawn)
inactive: [5] 95 % of control | [6] 107 % of control | [7] 107 % of control

CC(=N/NC(=O)c1ccc[n+](C)c1)/C(C)=N\NC(=O)c1ccc[n+](C)c1
inactive: dose: 25.0 mg/kg/injection, schedule: Q01DX001 (ip), vehicle: saline 95 % of control | dose: 50.0 mg/kg/injection, schedule: Q01DX001 (ip), vehicle: saline 95 % of control

CCCCP(=S)(N1CCCCC1)N1CCCCC1
inactive: [8] 95 % of control | [9] 97 % of control | [10] 86 % of control

COc1ccc(OCC(=O)N2CCCCC2)cc1
inactive: dose: 100.0 mg/kg/injection, schedule: Q01DX009 (ip), vehicle: carboxymethylcellulose (CMC) 92 % of control | dose: 200.0 mg/kg/injection, schedule: Q01DX009 (ip), vehicle: carboxymethylcellulose (CMC) 106 % of control

ICC1COC(CI)CO1 (stereo not drawn)
inactive: [11] 97 % of control | [12] 111 % of control and 95 % of control | [13] 95 % of control and 97 % of control

COc1cc2c(cc1OC)-c1cc3cc(OC)c(OC)cc3c(CCC(=O)O)[n+]1CC2
inactive: dose: 20.0 mg/kg/injection, schedule: Q04DX002 (ip), vehicle: Klucel (hydroxypropylcellulose) (HPC) 95 % of control | dose: 40.0 mg/kg/injection, schedule: Q04DX002 (ip), vehicle: Klucel (hydroxypropylcellulose) (HPC) 88 % of control | dose: 80.0 mg/kg/injection, schedule: Q04DX002 (ip), vehicle: Klucel (hydroxypropylcellulose) (HPC) 109 % of control

CC(=O)c1cccc(NC(=O)N2CCCCC2C)c1 (stereo not drawn)
inactive: [14] 111 % of control | [15] 112 % of control | [16] 103 % of control

O=c1nc(NO)ccn1C1CCCO1 (stereo not drawn)
inactive: [11] 96 % of control | [12] 100 % of control | [13] 96 % of control

N#C/C(=C\C=C\c1ccccc1)C(=O)O
inactive: [17] 96 % of control | [18] 107 % of control | [19] 96 % of control | [1] 94 % of control

COc1cccc2c1C(=O)c1c(O)c3c(c(O)c1C2=O)CC(O)(C(C)=O)CC3OC1OC(COC(C)=O)C(OC(C)=O)C(OC(C)=O)C1NC(=O)C(F)(F)F (stereo not drawn)
inactive: dose: 0.63 mg/kg/injection, schedule: Q01DX009 (ip), vehicle: Klucel (hydroxypropylcellulose) (HPC) 98 % of control | dose: 1.25 mg/kg/injection, schedule: Q01DX009 (ip), vehicle: Klucel (hydroxypropylcellulose) (HPC) 91 % of control | dose: 2.5 mg/kg/injection, schedule: Q01DX009 (ip), vehicle: Klucel (hydroxypropylcellulose) (HPC) 94 % of control | dose: 5.0 mg/kg/injection, schedule: Q01DX009 (ip), vehicle: Klucel (hydroxypropylcellulose) (HPC) 97 % of control | dose: 10.0 mg/kg/injection, schedule: Q01DX009 (ip), vehicle: Klucel (hydroxypropylcellulose) (HPC) 97 % of control

CC1NC(=O)NC1CCCCCC(=O)O (stereo not drawn)
inactive: dose: 50.0 mg/kg/injection, schedule: Q01DX001 (ip), vehicle: Klucel (hydroxypropylcellulose) (HPC) 98 % of control | [20] 98 % of control | [11] 97 % of control | [21] 96 % of control | [12] 98 % of control | [13] 97 % of control

CC(=O)OC1CCC2(C)C(CCC3(C)C2CC=C2C4=C(CCC(C)(C)C4=O)CCC23C)C1(C)C (stereo not drawn)
inactive: [8] 102 % of control | [9] 100 % of control | [10] 92 % of control

CCCCCCCCCCCCSC1=C(Cl)C(=O)C(OC)=C(OC)C1=O
inactive: dose: 3.12 mg/kg/injection, schedule: Q01DX009 (ip), vehicle: saline with Tween-80 100 % of control | dose: 6.25 mg/kg/injection, schedule: Q01DX009 (ip), vehicle: saline with Tween-80 93 % of control | dose: 12.5 mg/kg/injection, schedule: Q01DX009 (ip), vehicle: saline with Tween-80 94 % of control | dose: 25.0 mg/kg/injection, schedule: Q01DX009 (ip), vehicle: saline with Tween-80 96 % of control | [22] 100 % of control | [4] 94 % of control

N=c1c2n[nH]nc2ncn1O
inactive: dose: 75.0 mg/kg/injection, schedule: Q01DX001 (ip), vehicle: other 92 % of control | dose: 150.0 mg/kg/injection, schedule: Q01DX001 (ip), vehicle: other 110 % of control | dose: 300.0 mg/kg/injection, schedule: Q01DX001 (ip), vehicle: other 101 % of control

CCC/C(=N\Nc1ccc([N+](=O)[O-])cc1[N+](=O)[O-])c1ccccc1
inactive: dose: 100.0 mg/kg/injection, schedule: Q04DX003 (ip), vehicle: saline with Tween-80 91 % of control | dose: 400.0 mg/kg/injection, schedule: Q04DX003 (ip), vehicle: saline with Tween-80 86 % of control

CC(=O)Oc1cccc(N(C)C)c1
inactive: dose: 25.0 mg/kg/injection, schedule: Q04DX003 (ip), vehicle: saline 97 % of control | dose: 50.0 mg/kg/injection, schedule: Q04DX003 (ip), vehicle: saline 100 % of control | dose: 100.0 mg/kg/injection, schedule: Q01DX001 (ip), vehicle: acetone 98 % of control | [8] 91 % of control

Nc1ccc(-c2ccc(NC(=O)C(=O)O)cc2)cc1
inactive: [17] 101 % of control | dose: 25.0 mg/kg/injection, schedule: Q01DX009 (ip), vehicle: Klucel (hydroxypropylcellulose) (HPC) 95 % of control | [18] 97 % of control | dose: 50.0 mg/kg/injection, schedule: Q01DX009 (ip), vehicle: Klucel (hydroxypropylcellulose) (HPC) 97 % of control | [19] 111 % of control | [14] 100 % of control | [1] 111 % of control

FC(F)(F)c1nnnn1Cc1ccccc1
inactive: [5] 93 % of control | [6] 101 % of control | [7] 101 % of control

CCN(CC)CCN(C#N)Cc1ccccc1
inactive: dose: 75.0 mg/kg/injection, schedule: Q01DX001 (ip), vehicle: carboxymethylcellulose (CMC) 102 % of control

CCC(C)(C)c1cccc2ccccc12
inactive: [14] 96 % of control | [1] 102 % of control | [15] 100 % of control | [2] 106 % of control | [16] 86 % of control | [3] 101 % of control

Cc1ccccc1NP1(=O)OCCCN1Cc1ccc(Cl)c(Cl)c1 (stereo not drawn)
inactive: dose: 50.0 mg/kg/injection, schedule: Q01DX001 (ip), vehicle: carboxymethylcellulose (CMC) 98 % of control | [11] 98 % of control | [12] 98 % of control | [13] 93 % of control

C=Cc1ccc(Oc2ccccc2)cc1
inactive: [22] 98 % of control | [4] 112 % of control

COc1ccc(OC)c(C(=O)CCCCCCCCC(=O)O)c1
inactive: [1] 109 % of control | [2] 95 % of control | [3] 101 % of control

CC(=O)c1ccccc1OS(=O)(=O)c1ccc([N+](=O)[O-])cc1
inactive: [4] 105 % of control | [1] 105 % of control | dose: 200.0 mg/kg/injection, schedule: Q01DX009 (ip), vehicle: saline with Tween-80 111 % of control | [2] 100 % of control | dose: 400.0 mg/kg/injection, schedule: Q01DX009 (ip), vehicle: saline with Tween-80 114 % of control | [3] 103 % of control

CC#CCCC(=O)OCCC
inactive: dose: 100.0 mg/kg/injection, schedule: Q04DX002 (ip), vehicle: saline with Tween-80 121 % of control | dose: 200.0 mg/kg/injection, schedule: Q04DX002 (ip), vehicle: saline with Tween-80 93 % of control | dose: 400.0 mg/kg/injection, schedule: Q04DX002 (ip), vehicle: saline with Tween-80 108 % of control

COC1=CC2C3=CC(C)C4C(=O)OC(=O)C4C3C1C1C(=O)OC(=O)C21 (stereo not drawn)
inactive: [22] 105 % of control | [4] 94 % of control

Cc1ccc(C(=O)/C=C2/SS/C(=C/C(=O)c3ccc(C)cc3)S2)cc1
inactive: [19] 100 % of control | [20] 92 % of control | [1] 97 % of control | [21] 95 % of control | [2] 106 % of control | dose: 400.0 mg/kg/injection, schedule: Q01DX001 (ip), vehicle: Klucel (hydroxypropylcellulose) (HPC) 98 % of control | [3] 110 % of control
